The nature of the data set: physchem. Conditions: octanol/water.
One may read the logD as lipophilicity at a set pH, counting ionised and neutral species. A lower logD goes with lower lipophilicity. `C[C@@H]1CCCN1CCc1ccc2nc(-c3ccccn3)ccc2c1` registered a logD of 2.9. With `C[C@@H]1CCCN1CCc1ccc2nc(-c3ccc4nccnc4c3)ccc2c1`, the logD was 3.1. `C[C@@H]1CCCN1CCc1ccc2nc(-c3ccc4c(c3)COCO4)ccc2c1` had a logD of 3.2. Turning to `C[C@@H]1CCCN1CCc1ccc2nc(-c3nc4ccccc4s3)ccc2c1`, the log distribution coefficient (logD) worked out at 4.1. For `Cc1c(-c2ccc3cc(CCN4CCC[C@H]4C)ccc3n2)sc2ncnn12`, the logD worked out at 2.8. For the compound `C[C@@H]1CCCN1CCc1ccc2nc(-c3cn4c(n3)SCC4)ccc2c1`, the logD turned out to be 3.1. Take `Cc1nc2ccccn2c1-c1ccc2cc(CCN3CCC[C@H]3C)ccc2n1`: the logD came to 3.2.

`C[C@@H]1CCCN1CCc1ccc2nc(-c3ccn4ncnc4n3)ccc2c1` registered a logD of 2.5. The compound `Cc1c(-c2ccc3cc(CCN4CCC[C@H]4C)ccc3n2)sc2nc3ccccc3n12` showed a logD of 4.5. The compound `Cc1onc(-c2ccc(Cl)cc2)c1-c1ccc2cc(CCN3CCC[C@H]3C)ccc2n1` showed a logD of 4.9. Consider `C[C@@H]1CCCN1CCc1ccc2nc(-c3c(-c4ccccc4)nn(C)c3Cl)ccc2c1`, for which the logD is 4.7.

`Cc1onc(-c2ccccc2)c1-c1ccc2cc(CCN3CCC[C@H]3C)ccc2n1` registered a logD of 4.2. The figure for `Cc1nc(-c2ccncc2)sc1-c1ccc2cc(CCN3CCC[C@H]3C)ccc2n1` is 3.5.

Consider `Cc1nc(-c2nc(-c3ccc4cc(CCN5CCC[C@H]5C)ccc4n3)cs2)cs1`, for which the logD came to 3.6. `Cc1cc(-c2nc(-c3ccc4cc(CCN5CCC[C@H]5C)ccc4n3)cs2)no1` returned a logD of 3.5. As for `C[C@@H]1CCCN1CCc1ccc2nc(-c3cnc4c(c3)OCO4)ccc2c1`, the logD was 2.8. The figure for `C[C@@H]1CCCN1CCc1ccc2nc(-c3ccc(C#N)s3)ccc2c1` is 3.8.

Regarding `CCOC(=N)c1ccc(-c2ccc3cc(CCN4CCC[C@H]4C)ccc3n2)s1`, the logD came to 4.1. `O=C(C1CC(Oc2cccc(F)c2)CN1)N1CCCN(C2CCC2)CC1` (centres undefined): the logD amounted to 0.2. The compound `O=C(C1CC(Oc2cccc(Cl)c2)CN1)N1CCCN(C2CCC2)CC1` (centres undefined) showed a logD of 0.6. In turn, `O=C(C1CC(Oc2ccc(F)cc2)CN1)N1CCCN(C2CCC2)CC1` (centres undefined) came in with a logD of 0.2. For `O=C(C1CC(Oc2ccc(Cl)cc2)CN1)N1CCCN(C2CCC2)CC1` (centres undefined), the logD came to 0.6. For the compound `N#Cc1ccc(OC2CNC(C(=O)N3CCCN(C4CCC4)CC3)C2)cc1` (centres undefined), the logD is -0.2. Consider `N#Cc1ccc(OC2CNC(C(=O)N3CCCN(C4CCCC4)CC3)C2)cc1` (centres undefined), for which the logD turned out to be 0.6.

`O=C(C1CC(Oc2ccc(F)cc2)CN1)N1CCCN(C2CCCC2)CC1` (centres undefined) showed a logD of 0.9.

For `COC(=O)N1CC(Oc2cccc(F)c2)CC1C(=O)N1CCCN(C2CCC2)CC1` (centres undefined), the log distribution coefficient (logD) came out at 1.8. The compound `COC(=O)N1CC(Oc2ccc(F)cc2)CC1C(=O)N1CCCN(C2CCC2)CC1` (centres undefined) yielded a logD of 1.8.

Compound `CCCNS(=O)(=O)c1ccc(-c2ccc(CCN3CCC[C@H]3C)cc2)cc1` showed a pH-dependent lipophilicity (logD) of 2.8.

Consider `CCC(CO)NS(=O)(=O)c1ccc(-c2ccc(CCN3CCC[C@H]3C)cc2)cc1` (some centres undefined), for which the logD turned out to be 2.3. For the compound `C[C@@H]1CCCN1CCc1ccc(-c2ccc(S(=O)(=O)N3CCC(O)C3)cc2)cc1` (some centres undefined), the logD amounted to 1.5. Regarding `COCC1CCCN1S(=O)(=O)c1ccc(-c2ccc(CCN3CCC[C@H]3C)cc2)cc1` (some centres undefined), the logD turned out to be 2.5.

As to `C[C@H]1[C@H](c2ccc(OCCCN3CCCC3)cc2)Oc2ccccc2S1(=O)=O`, the logD turned out to be 2.2. As to `Cc1nc2ncccc2cc1-c1ccc2cc(CCN3CCC[C@H]3C)ccc2n1`, the log distribution coefficient (logD) is 3.1. For `Cc1cc2ncc(-c3ccc4cc(CCN5CCC[C@H]5C)ccc4n3)c(C)n2n1`, the logD worked out at 2.5. Regarding `Cc1nc2ccccc2c(=O)n1-c1ccc(OCCCN2CCCC2)cc1`, the logD was 1.7. `CCc1nc2ccccc2c(=O)n1-c1ccc(OCCCN2CCCC2)cc1`: the pH-dependent lipophilicity (logD) came to 2.4. `CC(C)c1nc2ccccc2c(=O)n1-c1ccc(OCCCN2CCCC2)cc1` registered a logD of 2.8. Regarding `O=c1c2ccccc2nc(-c2ccccc2)n1-c1ccc(OCCCN2CCCC2)cc1`, the log distribution coefficient (logD) worked out at 3.4. Regarding `Cc1cccc2nc(C)n(-c3ccc(OCCCN4CCCC4)cc3)c(=O)c12`, the logD amounted to 2.2. The figure for `CCCc1nc2ccccc2c(=O)n1-c1ccc(OCCCN2CCCC2)cc1` is 2.8; for `O=c1c2ccccc2ncn1-c1ccc(OCCCN2CCCC2)cc1` it is 1.6; for `CC[C@@H]1Sc2ccccc2O[C@@H]1c1ccc(OCCCN2CCCC2)cc1` it is 3.8.

In the case of `COc1cccc2c1S(=O)(=O)C(C)C(c1ccc(OCCCN3CCCC3)cc1)O2` (centres undefined), the logD was 2.2. Compound `COc1cccc2c1OC(c1ccc(OCCCN3CCCCC3)cc1)C(C)S2(=O)=O` (centres undefined) showed a logD of 2.7. `C[C@H]1Sc2ccccc2O[C@@H]1c1ccc(OCCCN2CCCC2)cc1`: the logD turned out to be 3.3. In turn, `COCCNS(=O)(=O)c1ccc(-c2ccc(CCN3CCC[C@H]3C)cc2)cc1` showed a logD of 1.8.

Regarding `COc1cccc2c1OC(c1ccc(OCCCN3CCC[C@H](C)C3)cc1)C(C)S2(=O)=O` (some centres undefined), the logD was determined as 3.3. The value for `C[C@@H]1CCCN1CCc1ccc(-c2ccc(S(=O)(=O)Nc3ccccc3)cc2)cc1` was 3.5. Compound `COC1CCN(S(=O)(=O)c2ccc(-c3ccc(CCN4CCC[C@H]4C)cc3)cc2)CC1` yielded a logD of 2.

Take `CC1=C(c2ccc(OCCCN3CCCC3)cc2)Oc2ccccc2S1(=O)=O`: the logD is 1.9.

Compound `C[C@@H]1Sc2ccccc2O[C@@H]1c1ccc(OCCCN2CCCC2)cc1` came in with a logD of 3.3.

In turn, `C[C@@H]1CCCN1CCc1ccc(-c2ccc(S(=O)(=O)NCC3CC3)cc2)cc1` had a logD of 2.8. Compound `C[C@@H]1CCCN1CCc1ccc(-c2ccc(S(=O)(=O)NCc3ccccc3)cc2)cc1` returned a logD of 3.6. Compound `C[C@@H]1CCCN1CCc1ccc(-c2ccc(S(=O)(=O)NCc3ccncc3)cc2)cc1` displayed a logD of 2.4. With `C[C@@H]1CCCN1CCc1ccc(-c2ccc(S(N)(=O)=O)cc2)cc1`, the logD stood at 1.8.

Compound `C[C@@H]1CCCN1CCc1ccc(-c2ccc(S(=O)(=O)NC3CCOCC3)cc2)cc1` showed a logD of 1.8. `C[C@@H]1CCCN1CCc1ccc(-c2ccc(S(=O)(=O)N3CCS(=O)(=O)CC3)cc2)cc1` gave a log distribution coefficient (logD) of 1.6. `COc1cccc2c1OC(c1ccc(OCCCN3CCC[C@H]3C)cc1)C(C)S2(=O)=O` (some centres undefined) registered a logD of 2.6. `CC1COCC(C)N1S(=O)(=O)c1ccc(-c2ccc(CCN3CCC[C@H]3C)cc2)cc1` (some centres undefined) returned a logD of 2.6. Compound `COc1ccc2c(c1)OC(c1ccc(OCCCN3CCCC3)cc1)C(C)S2(=O)=O` (centres undefined) gave a logD of 2.2.

Take `C[C@@H]1CCCN1CCc1ccc(-c2ccc(S(=O)(=O)N3CCCCC3)cc2)cc1`: the logD stood at 3.1. The value for `COc1cccc2c1OC(c1ccc(OC3CCN(C4CCC4)CC3)cc1)C(C)S2(=O)=O` (centres undefined) was 3.3; that for `C[C@@H]1CCCN1CCc1ccc(-c2ccc(S(=O)(=O)NC3CCC3)cc2)cc1` was 2.9.

Consider `COc1cccc2c1OC(c1ccc(OCCCN3CCC[C@@H]3C)cc1)C(C)S2(=O)=O` (some centres undefined), for which the log distribution coefficient (logD) worked out at 2.6. On to `C[C@@H]1CCCN1CCc1ccc(-c2ccc(S(=O)(=O)N3CCOCC3)cc2)cc1`, for which the log distribution coefficient (logD) is 1.9. As to `c1ccc([C@@H]2Sc3ccccc3O[C@@H]2c2ccc(OCCCN3CCCC3)cc2)cc1`, the pH-dependent lipophilicity (logD) is 4.5. On to `COc1ccc2c(c1)S(=O)(=O)C(C)C(c1ccc(OCCCN3CCCC3)cc1)O2` (centres undefined), for which the logD is 2.2.

`CCNS(=O)(=O)c1ccc(-c2ccc(CCN3CCC[C@H]3C)cc2)cc1` came in with a logD of 2.3.

Compound `Cc1ccc(-c2cc3sc(N4CCC(N5CCCCC5)CC4)nc3cn2)cn1` returned a logD of 1.4. With `N#Cc1cncc(-c2cc3sc(N4CCC(N5CCCCC5)CC4)nc3cn2)c1`, the logD is 1.

On to `COc1cc(-c2cnc3nc(N4CCC(N5CCCCC5)CC4)sc3c2)ccn1`, for which the logD was found to be 1.4. `COc1ccc(-c2cnc3nc(N4CCC(N5CCCCC5)CC4)sc3c2)cn1`: the logD came to 1.4. The compound `Nc1cnc(-c2cnc3nc(N4CCC(N5CCCCC5)CC4)sc3c2)cn1` yielded a logD of -0.1. Regarding `Cc1ccc(-c2cnc3nc(N4CCC(N5CCCCC5)CC4)sc3c2)cn1`, the logD worked out at 1.2. `CC(=O)Nc1ccc(-c2cnc3nc(N4CCC(N5CCCCC5)CC4)sc3c2)cn1` registered a pH-dependent lipophilicity (logD) of 0.6. The figure for `O=c1ccc(-c2cnc3nc(N4CCC(N5CCCCC5)CC4)sc3c2)c[nH]1` is 1.2; for `Fc1cc(-c2cc3sc(N4CCC(N5CCCCC5)CC4)nc3cn2)ccn1` it is 1.7; for `Fc1ccc(-c2cnc3nc(N4CCC(N5CCCCC5)CC4)sc3c2)cn1` it is 1.5. Take `COc1cc(-c2cc3sc(N4CCC(N5CCCCC5)CC4)nc3cn2)ccn1`: the logD was determined as 1.6.

Regarding `Fc1ccc(-c2cc3sc(N4CCC(N5CCCCC5)CC4)nc3cn2)cn1`, the logD worked out at 1.7. Turning to `c1ncc(-c2cc3sc(N4CCC(N5CCCCC5)CC4)nc3cn2)cn1`, the logD was 0.5. `Nc1ccc(-c2cnc3nc(N4CCC(N5CCCCC5)CC4)sc3c2)cn1` displayed a logD of 0.7.

In turn, `Nc1cnc(-c2cc3sc(N4CCC(N5CCCCC5)CC4)nc3cn2)cn1` yielded a logD of 0.2.

Consider `Clc1cc2sc(N3CCC(N4CCCCC4)CC3)nc2cn1`, for which the logD was 1.2. The value for `Fc1ncccc1-c1cnc2nc(N3CCC(N4CCCCC4)CC3)sc2c1` was 1.5; that for `c1ncc(-c2cnc3nc(N4CCC(N5CCCCC5)CC4)sc3c2)cn1` was 0.3; that for `COc1ccc(-c2cc3sc(N4CCC(N5CCCCC5)CC4)nc3cn2)cn1` was 1.6.

`Nc1ccc(-c2cc3sc(N4CCC(N5CCCCC5)CC4)nc3cn2)cn1`: the logD is 0.9. In turn, `CC(=O)Nc1ccc(-c2cc3sc(N4CCC(N5CCCCC5)CC4)nc3cn2)cn1` displayed a logD of 0.8. In the case of `Oc1ccc(-c2cc3sc(N4CCC(N5CCCCC5)CC4)nc3cn2)cn1`, the logD came to 1.4. The compound `N#Cc1cncc(-c2cnc3nc(N4CCC(N5CCCCC5)CC4)sc3c2)c1` registered a logD of 0.8. Take `Fc1ncccc1-c1cc2sc(N3CCC(N4CCCCC4)CC3)nc2cn1`: the logD turned out to be 1.7. The figure for `Fc1cc(-c2cnc3nc(N4CCC(N5CCCCC5)CC4)sc3c2)ccn1` is 1.5; for `N#Cc1cc(-c2cnc3nc(N4CCC(N5CCCCC5)CC4)sc3c2)ccc1F` it is 2.1.

The values are drawn from ChEMBL document CHEMBL1821550 (Bioorg Med Chem Lett, 2011).
